Reference: patent US7863315B2, “2-indolinone derivatives as selective histone deacetylase inhibitors” (Shenzhen Chipscreen Biosciences, Ltd., priority 2008, dated 2011)

Key:
Type in all cases: cell-based
[1] = system: HDAC7 (Nur77 reporter gene); assay: HDAC subtype reporter gene assay, Nur77-promoter luciferase in HeLa cells; settings: Homo sapiens, M-HeLa, read-out: % of SAHA Response for HDAC7 at 10 μM (Nur77 reporter gene), 24 hours
Protocol: Measurement of inhibition of HDAC subtypes activity in cells by reporter gene assay: HDAC subtype selectivity inhibition assay of tested compounds was carried out by several reporter gene assays experiments. Briefly, HeLa cells were seeded in 96-well plates the day before transfection to give a confluence of 50-80%. Cells were transfected with one of reporter gene plasmids containing a promoter sequences or response elements upstream of a luciferase gene construct using FuGene6 transfection reagent according to the manufacturer's instructions (Roche). The promoters or response elements including p21-promoter, gdf11-promoter, MEF-binding element (MEF2), Nur77-promoter were fused upstream to the luciferase gene reporter construct. For normalizing the transfection efficiency, a GFP expression plasmid was cotransfected. Cells were allowed to express protein for 24 hours followed by addition of individual compounds or the vehicle (DMSO). 24 hours later, the cells were harvested and the luciferase assays were performed using the luciferase assay kit according to the manufacturer's instructions (Promega). To normalize the data from the luciferase assays, GFP activity from transfected cells was measured in a microtiter-plate reading fluorimeter capable of excitation at a wavelength at 485 nm and detection of emitted light at 527 nm.

[2] = system: Hut-78 human T lymphoma cell line; assay: Anti-cell proliferation (MTS), Hut-78; settings: HuT78, 72 hours
Protocol: (§1) Measurement of in vivo cell proliferation:
(§2) Tumor cells were trypsinized and plated into 96-well plates at 3,000 per well and incubated in complete medium with 10% FBS for 24 hours. Compounds were added over a final concentration range of 100 μmol/L to 100 nmol/L in 0.1% DMSO and incubated for 72 hours in complete medium. The effects on proliferation were determined by addition of MTS reagent (Promega) according to the instruction, incubation for 2 hours at 37° C. in CO2 incubator, and record the absorbance at 490 nm using an ELISA plate reader.

[3] = system: HL60 human leukemia cell line; assay: Anti-cell proliferation (MTS), HL60; settings: HL-60, 72 hours
Protocol: as §1, §2

[4] = system: HeLa human cervical cancer cell line; assay: Anti-cell proliferation (MTS), HeLa; settings: 72 hours
Protocol: as §1, §2

[5] = system: A549 human lung cancer cell line; assay: Anti-cell proliferation (MTS), A549; settings: 72 hours
Protocol: as §1, §2

GI50 [2] | GI50 [3] | GI50 [4] | GI50 [5] | Compound | Emax at 10 µM [1]
 |  |  |  | Cc1[nH]c(/C=N/N=C2\C(=O)Nc3ccc(F)cc32)c(C)c1C(=O)NCCCCC(=O)Nc1ccccc1N [Example 7, 5-(5-(((5-fluoro-2-oxoindolin-3-ylidene)hydrazono)methyl)-2,4-dimethyl-1H-pyrrole-3-carboxamido)-N-(2-aminophenyl)pentanamide] | 3%
 |  |  |  | Cc1[nH]c(/C=N/N=C2\C(=O)Nc3ccc(F)cc32)c(C)c1C(=O)NCCCCC(=O)Nc1ccc(F)cc1N [Example 8, 5-(5-(((5-fluoro-2-oxoindolin-3-ylidene)hydrazono)methyl)-2,4-dimethyl-1H-pyrrole-3-carboxamido)-N-(2-amino-4-fluorophenyl)pentanamide] | 4%
 |  |  |  | Cc1[nH]c(/C=N/N=C2\C(=O)Nc3ccc(F)cc32)c(C)c1C(=O)NCCCCCC(=O)NO [Example 11, 6-(5-(((5-fluoro-2-oxoindolin-3-ylidene)hydrazono)methyl)-2,4-dimethyl-1H-pyrrole-3-carboxamido)-N-hydroxyhexanamide] | 9%
 |  |  |  | Cc1[nH]c(/C=N/N=C2\C(=O)Nc3ccc(F)cc32)c(C)c1C(=O)NCCCCCC(=O)Nc1ccc(F)cc1N [Example 12, 6-(5-(((5-fluoro-2-oxoindolin-3-ylidene)hydrazono)methyl)-2,4-dimethyl-1H-pyrrole-3-carboxamido)-N-(2-amino-4-fluorophenyl)hexanamide] | 6%
 |  |  |  | Cc1[nH]c(/C=N/N=C2\C(=O)Nc3ccc(F)cc32)c(C)c1C(=O)NCCCCCC(=O)Nc1ccccc1N [Example 13, 6-(5-(((5-fluoro-2-oxoindolin-3-ylidene)hydrazono)methyl)-2,4-dimethyl-1H-pyrrole-3-carboxamido)-N-(2-aminophenyl)hexanamide] | 5%
14.1 µM | 9.33 µM | 25.7 µM | 35.5 µM | Cc1[nH]c(/C=N/N=C2\C(=O)Nc3ccc(F)cc32)c(C)c1C(=O)NCCCCCCCC(=O)NO [Example 26, 8-(5-(((5-fluoro-2-oxoindolin-3-ylidene)hydrazono)methyl)-2,4-dimethyl-1H-pyrrole-3-carboxamido)-N-hydroxyoctanamide] | 11%
6.92 µM | 5.89 µM | > 100 µM | > 100 µM | Cc1[nH]c(/C=N/N=C2\C(=O)Nc3ccc(F)cc32)c(C)c1C(=O)NCCCCCCCC(=O)Nc1ccc(F)cc1N [Example 27, 8-(5-(((5-fluoro-2-oxoindolin-3-ylidene)hydrazono)methyl)-2,4-dimethyl-1H-pyrrole-3-carboxamido)-N-(2-amino-4-fluorophenyl)octanamide] | 6%
4.27 µM | 4.37 µM | 28.2 µM | 36.3 µM | Cc1[nH]c(/C=N/N=C2\C(=O)Nc3ccc(F)cc32)c(C)c1C(=O)NCCCCCCCC(=O)Nc1ccccc1N [Example 28, 8-(5-(((5-fluoro-2-oxoindolin-3-ylidene)hydrazono)methyl)-2,4-dimethyl-1H-pyrrole-3-carboxamido)-N-(2-aminophenyl)octanamide] | 16%
 |  |  |  | O=C(CCCCCNC(=O)c1ccc(/C=N/N=C2\C(=O)Nc3ccc(F)cc32)cc1)NO [Example 31, 6-(4-(((5-fluoro-2-oxoindolin-3-ylidene)hydrazono)methyl)benzamido)-N-hydroxyhexanamide] | 8%
 |  |  |  | Nc1ccccc1NC(=O)CCCCCNC(=O)c1ccc(/C=N/N=C2\C(=O)Nc3ccc(F)cc32)cc1 [Example 32, 6-(4-(((5-fluoro-2-oxoindolin-3-ylidene)hydrazono)methyl)benzamido)-N-(2-aminophenyl)hexanamide] | 5%
 |  |  |  | Nc1ccccc1NC(=O)CCCCCCCNC(=O)c1ccc(/C=N/N=C2\C(=O)Nc3ccc(F)cc32)cc1 [Example 35, 8-(4-(((5-fluoro-2-oxoindolin-3-ylidene)hydrazono)methyl)benzamido)-N-(2-aminophenyl)octanamide] | 13%
10.7 µM | 14.8 µM | 55 µM | 30.2 µM | Nc1cc(F)ccc1NC(=O)CCCCCCCNC(=O)c1ccc(/C=N/N=C2\C(=O)Nc3ccc(F)cc32)cc1 [Example 36, 8-(4-(((5-fluoro-2-oxoindolin-3-ylidene)hydrazono)methyl)benzamido)-N-(2-amino-4-fluorophenyl)octanamide] | 7%
4.17 µM | 4.17 µM | 22.9 µM | 28.8 µM | Nc1ccccc1NC(=O)CCCCCNC(=O)c1ccc(/C=C2\C(=O)Nc3ccc(F)cc32)cc1 [Example 39, 6-(4-((5-fluoro-2-oxoindolin-3-ylidene)methyl)benzamido)-N-(2-aminophenyl)hexanamide] | 29%
4.17 µM | 5.75 µM | 33.9 µM | 36.3 µM | Nc1cc(F)ccc1NC(=O)CCCCCNC(=O)c1ccc(/C=C2\C(=O)Nc3ccc(F)cc32)cc1 [Example 40, 6-(4-((5-fluoro-2-oxoindolin-3-ylidene)methyl)benzamido)-N-(2-amino-4-fluorophenyl)hexanamide] | 9%
 |  |  |  | O=C(CCCCCNC(=O)c1ccc(/C=C2\C(=O)Nc3ccc(F)cc32)cc1)NO [Example 41, 6-(4-((5-fluoro-2-oxoindolin-3-ylidene)methyl)benzamido)-N-hydroxyhexanamide] | 4%
4.37 µM | 2.95 µM | 11 µM | 19.5 µM | Nc1ccccc1NC(=O)CCCCCNC(=O)c1cccc(/C=C2\C(=O)Nc3ccc(F)cc32)c1 [Example 44, 6-(3-((5-fluoro-2-oxoindolin-3-ylidene)methyl)benzamido)-N-(2-aminophenyl)hexanamide] | 35%
 |  |  |  | Nc1cc(F)ccc1NC(=O)CCCCCNC(=O)c1cccc(/C=C2\C(=O)Nc3ccc(F)cc32)c1 [Example 45, 6-(3-((5-fluoro-2-oxoindolin-3-ylidene)methyl)benzamido)-N-(2-amino-4-fluorophenyl)hexanamide] | 16%
 |  |  |  | O=C(CCCCCNC(=O)c1cccc(/C=C2\C(=O)Nc3ccc(F)cc32)c1)NO [Example 46, 6-(3-((5-fluoro-2-oxoindolin-3-ylidene)methyl)benzamido)-N-hydroxyhexanamide] | 4%
 |  |  |  | Nc1ccccc1NC(=O)CCCCNC(=O)c1cccc(/C=C2\C(=O)Nc3ccc(F)cc32)c1 [Example 49, 5-(3-((5-fluoro-2-oxoindolin-3-ylidene)methyl)benzamido)-N-(2-aminophenyl)pentanamide] | 8%
6.76 µM | 3.98 µM | 20.9 µM | 35.5 µM | Nc1cc(F)ccc1NC(=O)CCCCNC(=O)c1cccc(/C=C2\C(=O)Nc3ccc(F)cc32)c1 [Example 50, 5-(3-((5-fluoro-2-oxoindolin-3-ylidene)methyl)benzamido)-N-(2-amino-4-fluorophenyl)pentanamide] | 12%
 |  |  |  | O=C(CCCCNC(=O)c1cccc(/C=C2\C(=O)Nc3ccc(F)cc32)c1)NO [Example 51, 5-(3-((5-fluoro-2-oxoindolin-3-ylidene)methyl)benzamido)-N-hydroxypentanamide] | 3%
3.89 µM | 2.46 µM | 18.2 µM | 24 µM | Nc1ccccc1NC(=O)CCCCCCCNC(=O)c1cccc(/C=C2\C(=O)Nc3ccc(F)cc32)c1 [Example 54, 8-(3-((5-fluoro-2-oxoindolin-3-ylidene)methyl)benzamido)-N-(2-aminophenyl)octanamide] | 25%
 |  |  |  | Nc1cc(F)ccc1NC(=O)CCCCCCCNC(=O)c1cccc(/C=C2\C(=O)Nc3ccc(F)cc32)c1 [Example 55, 8-(3-((5-fluoro-2-oxoindolin-3-ylidene)methyl)benzamido)-N-(2-amino-4-fluorophenyl)octanamide] | 9%
4.57 µM | 5.62 µM | 17.4 µM | 28.8 µM | O=C(CCCCCCCNC(=O)c1cccc(/C=C2\C(=O)Nc3ccc(F)cc32)c1)NO [Example 56, 8-(3-((5-fluoro-2-oxoindolin-3-ylidene)methyl)benzamido)-N-hydroxyoctanamide] | 27%
